Data on six compounds can be found in patent publication US7851493B2, “Phenyl-1,2,4-oxadiazolone derivatives with phenyl group, processes for their preparation and their use as pharmaceuticals” (Sanofi-Aventis, priority 2005, dated 2010).

pEC50: −log10 of the molar value. Where two headings read alike, the source gives them in different places.

Experiment [1] addresses T1, human PPARdelta (Homo sapiens, UniProt Q03181).
T1 construct: amino acids S139-Y441; expressed in transfected cells; plasmid pcDNA3
T1 sequence (Q03181 139-441): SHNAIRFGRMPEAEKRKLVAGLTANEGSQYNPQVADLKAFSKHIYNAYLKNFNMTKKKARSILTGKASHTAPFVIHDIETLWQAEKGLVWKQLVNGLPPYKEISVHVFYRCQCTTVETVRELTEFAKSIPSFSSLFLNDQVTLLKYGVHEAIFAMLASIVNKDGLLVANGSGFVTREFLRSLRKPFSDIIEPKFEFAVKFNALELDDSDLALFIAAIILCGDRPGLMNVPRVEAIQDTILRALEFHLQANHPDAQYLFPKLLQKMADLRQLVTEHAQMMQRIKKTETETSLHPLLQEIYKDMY
The experiment in a line: Cellular PPARdelta assay (human GAL4 luciferase reporter, stably transfected HEK cell line). The format is cell-based. As for the experimental part:
Determination of EC50 Values of PPAR Agonists in the Cellular PPARdelta Assay
(§1) The potency of substances which bind to human PPARdelta and activate it in an agonistic manner is analyzed using a stably transfected HEK cell line (HEK=human embryo kidney) which is referred to here as PPARdelta reporter cell line. In analogy to the assay described for PPARalpha, the PPARdelta reporter cell line also contains two genetic elements, a luciferase reporter element (pdeltaM-GAL4-Luc-Zeo) and a PPARdelta fusion protein (GR-GAL4-humanPPARdelta-LBD) which mediates expression of the luciferase reporter element depending on a PPARdelta ligand. The stably and constitutively expressed fusion protein GR-GAL4-humanPPARdelta-LBD binds in the cell nucleus of the PPARdelta reporter cell line via the GAL4 protein portion to the GAL4 DNA binding motifs 5′-upstream of the luciferase reporter element which is stably integrated in the genome of the cell line. There is only little expression of the luciferase reporter gene in the absence of a PPARdelta ligand if fatty acid-depleted fetal calf serum (cs-FCS) is used in the assay. PPARdelta ligands bind and activate the PPARdelta fusion protein and thereby stimulate expression of the luciferase reporter gene. The luciferase which is formed can be detected by means of chemiluminescence via an appropriate substrate.
Construction of the PPARdelta Reporter Cell Line
The production of the stable PPARdelta reporter cell line is based on a stable HEK-cell clone which was stably transfected with a luciferase reporter element. This step was already described above in the section “construction of the PPARalpha reporter cell line”. In a second step, the PPARdelta fusion protein (GR-GAL4-humanPPARdelta-LBD was stably introduced into this cell clone. For this purpose, the cDNA coding for the N-terminal 76 amino acids of the glucocorticoid receptor (Accession #P04150) was linked to the cDNA section coding for amino acids 1-147 of the yeast transcription factor GAL4 (Accession #P04386). The cDNA of the ligand-binding domain of the human PPARdelta receptor (amino acids S139-Y441; Accession #L07592) was cloned in at the 3′-end of this GR-GAL4 construct. The fusion construct prepared in this way (GR-GAL4-humanPPARdelta-LBD) was recloned into the plasmid pcDNA3 (Invitrogen) in order to enable constitutive expression by the cytomegalovirus promoter. This plasmid was linearized with a restriction endonuclease and stably transfected into the previously described cell clone containing the luciferase reporter element. The resulting PPARdelta reporter cell line which contains a luciferase reporter element and constitutively expresses the PPARdelta fusion protein (GR-GAL4-human PPARdelta-LBD) was isolated by selection with zeocin (0.5 mg/ml) and G418 (0.5 mg/ml).
Assay Procedure and Evaluation
The activity of PPARdelta agonists is determined in a 3-day assay in exact analogy to the procedure already described for the PPARalpha reporter cell line except that the PPARdelta reporter cell line and a specific PPARdelta agonist was used as a standard to control test efficacy.

Experiment [2] deals with T2, human PPARalpha (Homo sapiens, UniProt Q07869).
T2 construct: amino acids S167-Y468; expressed in transfected cells; plasmid pcDNA3
T2 sequence (Q07869 167-468): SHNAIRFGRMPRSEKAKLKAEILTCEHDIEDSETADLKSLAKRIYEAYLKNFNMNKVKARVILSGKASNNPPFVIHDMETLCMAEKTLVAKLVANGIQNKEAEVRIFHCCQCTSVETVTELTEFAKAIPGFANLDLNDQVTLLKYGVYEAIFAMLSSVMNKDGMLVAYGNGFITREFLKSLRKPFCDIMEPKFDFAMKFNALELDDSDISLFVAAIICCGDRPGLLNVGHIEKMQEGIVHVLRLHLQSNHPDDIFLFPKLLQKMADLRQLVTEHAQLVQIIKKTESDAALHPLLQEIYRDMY
The experiment in a line: Cellular PPARalpha assay (human GAL4 luciferase reporter, stably transfected HEK cell line). Type of experiment: cell-based. Here is the method:
Determination of EC50 Values of PPAR Agonists in the Cellular PPARalpha Assay
as §1, with “PPARalpha” for “PPARdelta”, “It” for “In analogy to the assay described for PPARalpha, the PPARdelta reporter cell line also”, “(GR-GAL4-humanPPARalpha-LBD)” for “(GR-GAL4-humanPPARdelta-LBD)”, “GR-GAL4-humanPPARalpha-LBD” for “GR-GAL4-humanPPARdelta-LBD”, “weak” for “little”, “stimulate the” for “stimulate”
Construction of the PPARalpha Reporter Cell Line
The PPARalpha reporter cell line was prepared in two stages. Firstly, the luciferase reporter element was constructed and stably transfected into HEK cells. For this purpose, five binding sites of the yeast transcription factor GAL4 (Accession #AF264724) were cloned in 5′-upstream of a 68 bp-long minimal MMTV promoter (Accession #V01175). The minimal MMTV promoter section contains a […] and a TATA element in order to enable efficient transcription by RNA polymerase II. The cloning and sequencing of the GAL4-MMTV construct took place in analogy to the description of Sambrook J. et al. (Molecular cloning, Cold Spring Harbor Laboratory Press, 1989). Then the complete Photinus pyralis gene (Accession #15077) was cloned in 3′-downstream of the GAL4-MMTV element. After sequencing, the luciferase reporter element consisting of five GAL4 binding sites, MMTV promoter and luciferase gene was recloned into a plasmid which confers zeocin resistance in order to obtain the plasmid pdeltaM-GAL4-Luc-Zeo. This vector was transfected into HEK cells in accordance with the statements in Ausubel, F. M. et al. (Current protocols in molecular biology, Vol. 1-3, John Wiley & Sons, Inc., 1995).
In a second step, the PPARalpha fusion protein (GR-GAL4-humanPPARalpha-LBD was introduced into the stable cell clone described. For this purpose, initially the cDNA coding for the N-terminal 76 amino acids of the glucocorticoid receptor (Accession #P04150) was linked to the cDNA section coding for amino acids 1-147 of the yeast transcription factor GAL4 (Accession #P04386). The cDNA of the ligand-binding domain of the human PPARalpha receptor (amino acids S167-Y468; Accession #S74349) was cloned in at the 3′-end of this GR-GAL4 construct. The fusion construct prepared in this way (GR-GAL4-humanPPARalpha-LBD) was recloned into the plasmid pcDNA3 (Invitrogen) in order to enable constitutive expression therein by the cytomegalovirus promoter. This plasmid was linearized with a restriction endonuclease and stably transfected into the previously described cell clone containing the luciferase reporter element. The finished PPARalpha reporter cell line which contains a luciferase reporter element and constitutively expresses the PPARalpha fusion protein (GR-GAL4-human PPARalpha-LBD) was isolated by selection with zeocin (0.5 mg/ml) and G418 (0.5 mg/ml).
The activity of PPARalpha agonists is determined in a 3-day assay, which is described below: […]

The conditions of experiment [3]: diabetic animal model; cited from earlier work.
The conditions of experiment [4]: rhesus and cynomolgus monkeys; cited from earlier work.
For experiment [5] the following is noted: two weeks clinical trials in healthy volunteers; cited from earlier work.

In general, pEC50 refers to the negative decadic logarithm of the EC50, by convention in mol/L. Read a low pEC50 as a large EC50. Consider `O=c1[nH]c(-c2ccc(OCc3sc(-c4ccc(C(F)(F)F)cc4)nc3CN3CCC(C(F)(F)F)CC3)cc2OC(F)F)no1` [Example 94, 3-{2-Difluoromethoxy-4-[2-(4-trifluoromethyl-phenyl)-4-(4-trifluoromethyl-piperidin-1-ylmethyl)-thiazol-5-ylmethoxy]-phenyl}-4H-1,2,4-oxadiazol-5-one], for which the values for the pEC50 in experiment [1] and in experiment [2] were 7.74 and 6.18, respectively.

As for `CCCCc1nc(-c2ccc(C(F)(F)F)cc2)sc1COc1ccc(-c2noc(=O)[nH]2)c(C)n1` [Example 100, 3-{6-[4-Butyl-2-(4-trifluoromethyl-phenyl)-thiazol-5-ylmethoxy]-2-methyl-pyridin-3-yl}-4H-[1,2,4]oxadiazol-5-one], the negative logarithm of the EC50 (pEC50) in experiment [1] is 8.10; in experiment [2] it was 6.50.

On to `COc1cc(OCc2sc(-c3ccc(C(F)(F)F)cc3)nc2CCCS(C)(=O)=O)ccc1-c1noc(=O)[nH]1` [Example 102, 3-{4-[4-(3-Methanesulfonyl-propyl)-2-(4-trifluoromethyl-phenyl)-thiazol-5-ylmethoxy]-2-methoxy-phenyl}-4H-1,2,4-oxadiazol-5-one], for which the pEC50 in experiment [1] is 7.66; in experiment [2], 5.75.

Regarding `COc1cc(OCc2sc(-c3ccc(C(F)(F)F)cc3)nc2CCCN2CCSCC2)ccc1-c1noc(=O)[nH]1` [Example 103, 3-{2-Methoxy-4-[4-(3-thiomorpholin-4-yl-propyl)-2-(4-trifluoromethyl-phenyl)-thiazol-5-ylmethoxy]-phenyl}-4H-1,2,4-oxadiazol-5-one], the pEC50 in experiment [1] was 8.10; in experiment [2], 6.32.

For the compound `CCCc1c(OCCCOc2ccc(OCC(=O)O)cc2)ccc(C(C)=O)c1O` [Example L-165041], the plasma cholesterol entry in experiment [3] was “raises”.

For `CCCc1c(OCCCSc2nnc(SCC(=O)O)s2)ccc(C(C)=O)c1O` [YM-16638], the plasma lipids entry in experiment [4] was “significantly lowers”; in experiment [5] it was “acts in a similar manner”.
